In brackets after ≈: the same amount, converted by molar mass. Numbered stars: 1 amine (or outer) side, 2 acyl side, 3 side chain; on linkers, the order of the positions; unused ones are H or OH. Bridge positions count the residues as written; N and C are the ends. Square brackets hold non-standard residues; d marks the D form. Peptide text beside a SMILES is read from it. * marks the point of attachment. ξ: configuration not given here. NMeTrp(4-OMe) = CN[CH](Cc1c[nH]c2cccc(OC)c12)C(=O)O; X1 = O=C(C(N[*:1])C(O)c1ccccc1)[*:2]; NMeI = CC[CH](C)[CH](NC)C(=O)O; ξNMe2Val = CC(C)C(C(=O)*)N(C)C; NMeT = CN[CH](C(=O)O)[CH](C)O; NMeL = CN[CH](CC(C)C)C(=O)O; NMeV = CN[CH](C(=O)O)C(C)C
Legend:
[1] = test system: M. tuberculosis strain resistant to isoniazid (INH)
[2] = test system: M. tuberculosis strain resistant to kanamycin (KM)
[3] = test system: M. tuberculosis strain resistant to cycloserine (CS)
[4] = test system: M. tuberculosis strain resistant to moxifloxacin (Mox)
[5] = test system: M. tuberculosis strain resistant to streptomycin (SM)
[6] = test system: M. tuberculosis strain resistant to capreomycin (CAP)
[7] = test system: M. tuberculosis strain resistant to rifampin (RMP)

| Structure (SMILES) | MIC [1] [µM] | MIC [2] [µM] | MIC [3] [µM] | MIC [4] [µM] | MIC [5] [µM] | MIC [6] [µM] | MIC [7] [µM] |
| --- | --- | --- | --- | --- | --- | --- | --- |
| CCC(C)C(C(=O)NC1C(=O)N(C)C(C(C)O)C(=O)NC(C(C)C)C(=O)N(C)C(CC(C)C)C(=O)NC(C(C)C)C(=O)N(C)C(C(C)C)C(=O)N(C)C(Cc2c[nH]c3cccc(OC)c23)C(=O)NC(C(C)C)C(=O)NC(Cc2ccccc2)C(=O)NC(C(C)C)C(=O)OC1C)N(C)C(=O)C(NC(=O)C(C(C)C)N(C)C)C(C)C (centres unmarked) [H-16] (ξNMe2Val-V[NMeI]T[NMeT]V[NMeL]V[NMeV][NMeTrp(4-OMe)]VFV; ester 3-C; configuration not given here) | <0.12 | <0.12 | <0.12 | 0.3 (≈ 0.475 µg/mL) | <0.12 | 0.3 (≈ 0.475 µg/mL) | 0.18 (≈ 0.285 µg/mL) |
| CCC(C)C(C(=O)NC1C(=O)N(C)C(C(C)O)C(=O)NC(C(C)C)C(=O)N(C)C(CC(C)C)C(=O)NC(C(C)C)C(=O)N(C)C(C(C)C)C(=O)N(C)C(Cc2c[nH]c3cccc(OC)c23)C(=O)NC(C(C)C)C(=O)NC(C(O)c2ccccc2)C(=O)NC(C(C)C)C(=O)OC1C)N(C)C(=O)C(NC(=O)C(C(C)C)N(C)C)C(C)C (centres unmarked) [H-14] (ξNMe2Val-V[NMeI]T[NMeT]V[NMeL]V[NMeV][NMeTrp(4-OMe)]V[X1]V; ester 3-C; configuration not given here) | <0.12 | <0.12 | <0.12 | 0.31 (≈ 0.496 µg/mL) | <0.12 | 0.29 (≈ 0.464 µg/mL) | 0.19 (≈ 0.304 µg/mL) |

Reference: US9090667B2, “Cyclic peptide from Nonomuraea sp., process for the production thereof, and pharmaceutical composition for the prevention or treatment of mycobacteria related disease comprising the same” (priority 2011, dated 2015)
